Data on 21 molecules can be found in patent US20240425524A1, “SPIROTRICYCLE RIPK1 INHIBITORS AND METHODS OF USES THEREOF” (Merck Sharp & Dohme LLC, priority 2021, published 2024).

The target of the test is RIPK1 (Homo sapiens (Human), UniProt Q13546). Nature of the test: RIPK1-ADP-Glo Enzymatic Assay. It is filed as biochemical. Conditions: recombinant GST-RIPK1 kinase domain (residues 1-327), 25 nM, ten-point titration, 30 minutes pre-incubation. The procedure, abridged:
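GST-RIPK1 kinase domain (residues 1-327, Sf21-expressed; 25 nM final) was pre-incubated 30 min at ambient temperature with compound (10-point 1:3 series from 100000 nM, 1% DMSO) in HEPES pH 7.3 buffer with 20 mM MgCl2. The reaction was started with 900 μM ATP (addition solution) and 3 μM dephosphorylated MBP and ran 150 min. Read-out was ADP-Glo luminescence, with EC50 from a four-parameter fit.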

Molecules are shown by their SMILES.

Chain of RIPK1 (Q13546 1-327): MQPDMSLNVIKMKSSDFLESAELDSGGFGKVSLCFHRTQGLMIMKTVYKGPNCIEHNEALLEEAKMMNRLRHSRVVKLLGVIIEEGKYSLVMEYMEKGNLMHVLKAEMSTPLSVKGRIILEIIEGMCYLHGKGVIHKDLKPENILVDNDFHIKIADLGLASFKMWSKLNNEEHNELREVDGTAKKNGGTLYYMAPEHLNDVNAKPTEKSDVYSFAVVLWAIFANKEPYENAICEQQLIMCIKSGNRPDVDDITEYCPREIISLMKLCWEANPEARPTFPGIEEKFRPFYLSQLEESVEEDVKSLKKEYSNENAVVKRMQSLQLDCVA

With `Cc1ccnc(N2CCC3(CC2)CN2CC[C@@H](c4cc(F)cc(F)c4)N2C3=O)n1` [Example 1.27, (S)-7′-(3,5-difluorophenyl)-1-(4-methylpyrimidin-2-yl)dihydro-1′H,3′H,5′H-spiro[piperidine-4,2′-pyrazolo[1,2-a]pyrazol]-1′-one], the EC50 was 637 nM.
As to `O=C1N2[C@H](c3cc(F)cc(F)c3)CCN2CC12CCN(c1cc(-c3ccco3)ccn1)CC2` [Example 2.22, (S)-7′-(3,5-difluorophenyl)-1-(4-(furan-2-y1)pyridin-2-yl)dihydro-1′H,3′H,5′H-spiro[piperidine-4,2′-pyrazolo[1,2-a]pyrazol]-1′-one], the EC50 turned out to be 132 nM.
Under `CCc1nccc(N2CCC3(CC2)CN2CC[C@@H](c4cc(F)cc(F)c4)N2C3=O)n1` [Example 1.72, (S)-7′-(3,5-difluorophenyl)-1-(2-ethylpyrimidin-4-yl)dihydro-1′H,3′H,5′H-spiro[piperidine-4,2′-pyrazolo[1,2-a]pyrazol]-1′-one] stands 208 nM.
On to `O=C(c1ccc(Cl)c(F)c1)N1CCC2(CC1)CN1CC[C@@H](c3cc(F)cc(F)c3)N1C2=O` [Example 4.23, (S)-1-(4-chloro-3-fluorobenzoyl)-7′-(3,5-difluorophenyl) dihydro-1′H,3′H,5′H-spiro[piperidine-4,2′-pyrazolo[1,2-a]pyrazol]-l′-one], for which the concentration giving a half-maximal response (EC50) stood at 23 nM.
With `O=C1N2[C@H](c3cc(F)cc(F)c3)CCN2CC12CCN(c1cnc(-c3ccccc3Cl)cn1)CC2` [Example 2.16, (S)-1-(5-(2-chlorophenyl)pyrazin-2-y1)-7′-(3,5-difluorophenyl)dihydro-1′H,3′H,5′H-spiro[piperidine-4,2′-pyrazolo[1,2-a]pyrazol]-1′-one], the 50% effective concentration (EC50) was determined as 25 nM.
`O=C1N2[C@H](c3cc(F)cc(F)c3)CCN2CC12CCN(c1noc3ccccc13)CC2` [Example 1.81, (S)-1-(benzo[d]isoxazol-3-yl)-7′-(3,5-difluorophenyl)dihydro-1′H,3′H,5′H-spiro[piperidine-4,2′-pyrazolo[1,2-a]pyrazol]-1′-one]: the EC50 came out at 366 nM.
On to `CNC(=O)c1ccnc(N2CCC3(CC2)CN2CC[C@@H](c4cc(F)cc(F)c4)N2C3=O)n1` [Example 1.90, (S)-2-(7′-(3,5-difluorophenyl)-1′-oxodihydro-1′H,3′H,5′H-spiro[piperidine-4,2′-pyrazolo[1,2-a]pyrazol]-1-yl)-N-methylpyrimidine-4-carboxamide], for which the concentration for a half-maximal effect (EC50) was 106 nM.
As to `CSc1ncc(C)c(N2CCC3(CC2)CN2CC[C@@H](c4cc(F)cc(F)c4)N2C3=O)n1` [Example 1.66, (S)-7′-(3,5-difluorophenyl)-1-(5-methyl-2-(methylthio)pyrimidin-4-yl)dihydro-1′H,3′H,5′H-spiro[piperidine-4,2′-pyrazolo[1,2-a]pyrazol]-1′-one], the EC50 stood at 673 nM.
For `N#Cc1cc(Cl)nc(N2CCC3(CC2)CN2CC[C@@H](c4cc(F)cc(F)c4)N2C3=O)c1` [Example 1.52, (S)-2-chloro-6-(7′-(3,5-difluorophenyl)-1′-oxodihydro-1′H,3′H,5′H-spiro[piperidine-4,2′-pyrazolo[1,2-a]pyrazol]-1-yl)isonicotinonitrile], the 50% effective concentration (EC50) worked out at 54 nM.
Under `CC(=O)c1cccc(N2CCC3(CC2)CN2CC[C@@H](c4cc(F)cc(F)c4)N2C3=O)n1` [Example 1.64, (S)-1-(6-acetylpyridin-2-yl)-7′-(3,5-difluorophenyl)dihydro-1′H,3′H,5′H-spiro[piperidine-4,2′-pyrazolo[1,2-a]pyrazol]-1′-one] stands 25 nM.
Under `N#Cc1ccc(N2CCC3(CC2)CN2CC[C@@H](c4cc(F)cc(F)c4)N2C3=O)n2nccc12` [Example 7.1] stands 6 nM; under `O=C1N2[C@H](c3cc(F)cc(F)c3)CCN2CC12CCN(Cc1ccc3ccccc3n1)CC2` [Example 6.1, (S)-7′-(3,5-difluorophenyl)-1-(quinolin-2-ylmethyl) dihydro-1′H,3′H,5′H-spiro [piperidine-4,2′-pyrazolo[1,2-α]pyrazol]-1′-one], 706 nM.
To `O=C1N2[C@H](c3cc(F)cc(F)c3)CCN2CC12CCN(c1cccc(Cl)n1)CC2` [Example 1.5, (7′S)-1-(6-chloropyridin-2-yl)-7′-(3,5-difluorophenyl)dihydro-1′H,3′H,5′H-spiro[piperidine-4,2′-pyrazolo[1,2-a]pyrazol]-1′-one] belongs 24 nM; to `O=C1N2[C@H](c3cc(F)cc(F)c3)CCN2CC12CCN(c1ccc(OC(F)F)cn1)CC2` [Example 2.21, (S)-1-(5-(difluoromethoxy)pyridin-2-y1)-7′-(3,5-difluorophenyl)dihydro-1′H,3′H,5′H-spiro[piperidine-4,2′-pyrazolo[1,2-a]pyrazol]-1′-one], 28 nM.
For the molecule `O=C(c1cc(F)c(F)c(F)c1)N1CCC2(CC1)CN1CC[C@@H](c3cc(F)cc(F)c3)N1C2=O` [Example 4.10, (S)-7′-(3,5-difluorophenyl)-1-(3,4,5-trifluorobenzoyl) dihydro-1′H,3′H,5′H-spiro[piperidine-4,2′-pyrazolo[1,2-a]pyrazol]-l′-one], the EC50 is 67 nM.
Under `O=C(c1cc(F)cc(Cl)c1)N1CCC2(CC1)CN1CC[C@@H](c3cc(F)cc(F)c3)N1C2=O` [Example 4.19, (S)-1-(3-chloro-5-fluorobenzoyl)-7′-(3,5-difluorophenyl) dihydro-1′H,3′H,5′H-spiro[piperidine-4,2′-pyrazolo[1,2-a]pyrazol]-l′-one] stands 18 nM.
Under `Cc1cc(N2CCC3(CC2)CN2CC[C@@H](c4cc(F)cc(F)c4)N2C3=O)nc(C(F)(F)F)n1` [Example 1.44, (S)-7′-(3,5-difluorophenyl)-1-(6-methyl-2-(trifluoromethyl)pyrimidin-4-yl)dihydro-1′H,3′H,5′H-spiro[piperidine-4,2′-pyrazolo[1,2-a]pyrazol]-1′-one] stands 274 nM; under `COC(=O)N1CCC2(CC1)CN1CC[C@@H](c3cc(F)cc(F)c3)N1C2=O` [Example 5.2, methyl (S)-7′-(3,5-difluorophenyl)-1′-oxodihydro-1′H,3′H,5′H-spiro [piperidine-4,2′-pyrazolo[1,2-a]pyrazole]-1-carboxylate], 139 nM.
To `N#Cc1c(F)c(F)nc(N2CCC3(CC2)CN2CC[C@@H](c4cc(F)cc(F)c4)N2C3=O)c1F` [Example 1.51, (S)-2-(7′-(3,5-difluorophenyl)-1′-oxodihydro-1′H,3′H,5′H-spiro [piperidine-4,2′-pyrazolo[1,2-a]pyrazol]-1-yl)-3,5,6-trifluoroisonicotinonitrile] belongs 189 nM.
As to `O=C1N2[C@H](c3cc(F)cc(F)c3)CCN2CC12CCN(c1cc(Cl)ccn1)CC2` [Example 1.11, (7′S)-1-(4-chloropyridin-2-yl)-7′-(3,5-difluorophenyl)dihydro-1′H,3′H,5′H-spiro[piperidine-4,2′-pyrazolo[1,2-a]pyrazol]-1′-one], the EC50 stood at 28 nM.
To `O=C1N2[C@H](c3cc(F)cc(F)c3)CCN2CC12CCN(c1nc3ccccc3o1)CC2` [Example 1.80, (S)-1-(benzo[d]oxazol-2-yl)-7′-(3,5-difluorophenyl)dihydro-1′H,3′H,5′H-spiro[piperidine-4,2′-pyrazolo[1,2-a]pyrazol]-1′-one] belongs 50 nM.
